Laboratory results reported in PMC9736374, “Design, Synthesis and Antimicrobial Properties of New Tetracyclic Quinobenzothiazine Derivatives” (International Journal of Molecular Sciences, 2022).

Tests used:
[1] = system: vancomycin-resistant E. faecalis VRE 342B (VRE1); assay: MIC, microtitration broth method; assay type: cell-based, Enterococcus faecalis; details: VRE1 = VRE 342B; 24 h, 37 °C
[2] = Lipophilicity by RP-TLC; assay type: physicochemical; details: Tris buffer pH 7.4/acetone, read-out: logPTLC
Method: The lipophilicity parameters were determined experimentally using reverse phase thin-layer chromatography (RP-TLC). Chromatograms were prepared on RP-18F254s plates (1.05559.0001, Merck, Germany) precoated with nonpolar silicone oil. Plates were developed in glass chromatography chambers previously saturated with vapor of mobile phase. The mobile phase was composed of 0.2M Tris buffer (pH = 7.4) and acetone in different concentrations, i.e., 50%, 60%, 70%, 80 and 90%. The chromatograms were visualised in UV light (λ = 254 nm). Determination of the RF coefficient was carried out twice for all compounds; in all cases, acetone concentrations used. The final value of RF is the mean of the two measurements. The obtained RF coefficient was used to calculate the value of the RM parameter according to the equation: RM = log [(1/RF) − 1]. By extrapolating RM values to zero acetone concentration, a relative RM0 lipophilicity parameter was obtained, according to the equation: RM = RM0 + bC, where b is slope and C is concentration of acetone in mobile phase. Based on RM0 and the calibration curve, the values of logPTLC for compounds 6a–l were determined. The calibration curve was calculated using the relationship between RM0 of the standard molecules (acetanilide, p-kresol, p-bromoacetophenone, benzophenone, anthracene) and the corresponding logP parameters specified by the extraction method, respectively. RM0 parameters of the standard molecules and quinobenzothiazine derivatives 6a–l were determined in the same empirical conditions.

[3] = system: methicillin-resistant S. aureus 63718 (MRSA3); assay: MBC, agar aliquot subculture method; assay type: cell-based; details: Staphylococcus aureus; MRSA3 = 63718
[4] = system: methicillin-resistant S. aureus 63718 (MRSA3); assay: MIC, microtitration broth method; assay type: cell-based; details: Staphylococcus aureus; MRSA3 = 63718; 24 h, 37 °C
[5] = system: vancomycin-resistant E. faecalis VRE 342B (VRE1); assay: MBC, agar aliquot subculture method; assay type: cell-based, Enterococcus faecalis; details: VRE1 = VRE 342B
[6] = system: S. aureus; assay: Crystal violet uptake (membrane permeability); assay type: cell-based, Staphylococcus aureus; details: 4× MIC, 1 h; compared to growth control and 1% Tween 20
Method: Phenothiazines are also known for their ability to interact with and damage the cell wall, which has fatal consequences for the microorganism. Therefore, the bacterial suspensions were treated by compounds 6a, 6e, 6g, 6j and 6k (4× MIC) for 1 h. The uptake of crystal violet was expressed as a percentage compared to the original crystal violet solution.

[7] = system: S. aureus ATCC 29213 respiratory activity; assay: MTT assay of bacterial respiration; assay type: cell-based, Staphylococcus aureus; details: for Conc.: corresponding multiple of MBC with at least 70% inhibition of respiratory activity / Conc.: lowest multiple of MIC with at least 70% inhibition of respiratory activity: S. aureus ATCC 29213, MTT, 24 h; for Decrease in viability < 70% at MIC value (MTT): S. aureus ATCC 29213, at MIC; for S. aureus Respiration Inhibition: at the concentration given
[8] = system: methicillin-resistant S. aureus SA 630 (MRSA2); assay: MIC, microtitration broth method; assay type: cell-based; details: Staphylococcus aureus; MRSA2 = SA 630; 24 h, 37 °C
[9] = system: M. smegmatis ATCC 700084; assay: In vitro antimycobacterial MIC, broth dilution micro-method; assay type: cell-based, Mycobacterium smegmatis; details: Mycolicibacterium smegmatis, ATCC700084, 72 h; MS = M. smegmatis ATCC 700084; 3 days, 37 °C
[10] = system: vancomycin-resistant E. faecalis VRE 725B (VRE3); assay: MBC, agar aliquot subculture method; assay type: cell-based, Enterococcus faecalis; details: VRE3 = VRE 725B
[11] = system: Enterococcus faecalis ATCC 29212; assay: MBC, agar aliquot subculture method; assay type: cell-based; details: ATCC29212; EF = Enterococcus faecalis
[12] = system: methicillin-resistant S. aureus SA 3202 (MRSA1); assay: MBC, agar aliquot subculture method; assay type: cell-based; details: Staphylococcus aureus; MRSA1 = SA 3202
[13] = system: methicillin-resistant S. aureus SA 630 (MRSA2); assay: MBC, agar aliquot subculture method; assay type: cell-based; details: Staphylococcus aureus; MRSA2 = SA 630
[14] = system: Mycobacterium marinum CAMP 5644; assay: In vitro antimycobacterial MIC, broth dilution micro-method; assay type: cell-based; details: CAMP5644, 504 h; MM = Mycobacterium marinum CAMP 5644; 21 days, 28 °C
[15] = system: methicillin-resistant S. aureus SA 3202 (MRSA1); assay: MIC, microtitration broth method; assay type: cell-based; details: Staphylococcus aureus; MRSA1 = SA 3202; 24 h, 37 °C
[16] = system: Enterococcus faecalis ATCC 29212; assay: MIC, microtitration broth method; assay type: cell-based; details: ATCC29212; EF = Enterococcus faecalis; 24 h, 37 °C
[17] = system: vancomycin-resistant E. faecalis VRE 368 (VRE2); assay: MBC, agar aliquot subculture method; assay type: cell-based, Enterococcus faecalis; details: VRE2 = VRE 368
[18] = system: normal human dermal fibroblasts (NHDF); assay: In vitro cell viability, WST-1 assay; assay type: cell-based; details: 72 h
Method: Compounds were evaluated for their antiproliferative activity using NHDF (normal human dermal fibroblasts, ATCC, Manassas, VA, USA). The cultured cells were kept at 37 °C and 5% CO2. The cells were seeded (1 × 10^4 cells/well/100 μL DMEM supplemented with 10% FCS and streptomycin/penicillin) into 96-well plates (Corning Inc., Corning, NY, USA). Cells were counted using a hemocytometer (Burker chamber) and phase contrast Olympus IX50 microscope equipped with Sony SSC-DC58 AP camera and Olympus DP10 digital camera. The cell viability of the compounds was determined using the Cell Proliferation Reagent WST-1 assay (Roche Molecular Biochemicals, Mannheim, Germany). The examined cells were exposed to the tested compounds (1 mg/mL DMSO stock) for 72 h at various concentrations (0.1–100 μg/mL). The control was included in order to eliminate the DMSO effect at the concentration used. Cell cultures were incubated with WST-1 (10 μL) for 1 h. The absorbance of the samples was measured against a background control at 450 nm using a microplate reader with a reference wavelength at 600 nm. The obtained results are expressed as means of at least two independent experiments performed in triplicate.

[19] = system: vancomycin-resistant E. faecalis VRE 368 (VRE2); assay: MIC, microtitration broth method; assay type: cell-based, Enterococcus faecalis; details: VRE2 = VRE 368; 24 h, 37 °C
[20] = system: Staphylococcus aureus ATCC 29213; assay: MBC, agar aliquot subculture method; assay type: cell-based; details: ATCC29213; SA = Staphylococcus aureus ATCC 29213
[21] = system: vancomycin-resistant E. faecalis VRE 725B (VRE3); assay: MIC, microtitration broth method; assay type: cell-based, Enterococcus faecalis; details: VRE3 = VRE 725B; 24 h, 37 °C
[22] = system: Staphylococcus aureus ATCC 29213; assay: MIC, microtitration broth method; assay type: cell-based; details: ATCC29213; SA = Staphylococcus aureus ATCC 29213; 24 h, 37 °C

SMILES	MIC [1] [µM]	chromatographic logP [2]	MBC [3] [µM]	MIC [4] [µM]	MBC [5] [µM]	Effect on plasma membrane permeability (uptake of crystal violet) [6]	S. aureus Respiration Inhibition [7] [%]	MIC [8] [µM]	MIC [9] [µM]	MBC [10] [µM]	MBC [11] [µM]	MBC [12] [µM]	MBC [13] [µM]	MIC [14] [µM]	MIC [15] [µM]	MIC [16] [µM]	MBC [17] [µM]	IC50 [18] [µM]	MIC [19] [µM]	MBC [20] [µM]	also measured
C=CCOc1ccc2c(c1)Nc1c(c[n+](C)c3ccccc13)S2 [Compound 6e, 10-allyloxy-5-methyl-12H-quino[3,4-b][1,4]benzothiazinium chloride]	179	2.47	22.4	22.4	179	did not affect plasma membrane permeability	97.4	44.8	22.4	89.6	89.6	44.8	44.8	11.2	44.8	89.6	179	> 100	179	44.8	Conc.: corresponding multiple of MBC with at least 70% inhibition of respiratory activity [7]: 2× MIC (2× MBC); Conc.: lowest multiple of MIC with at least 70% inhibition of respiratory activity [7]: 2× MIC (2× MBC); Decrease in viability < 70% at MIC value (MTT) [7]: did not show a decrease in viability < 70%; MIC [21]: 89.6 µM; MIC [22]: 44.8 µM
C#CCOc1ccc2c(c1)Sc1c[n+](C)c3ccccc3c1N2 [Compound 6g, 9-propargyloxy-5-methyl-12H-quino[3,4-b][1,4]benzothiazinium chloride]	90.1	2.11	45.1	45.1	90.1	did not affect plasma membrane permeability	96.8	45.1	22.5	90.1	90.1	45.1	45.1	11.3	45.1	90.1	90.1	> 100	90.1	45.1	Conc.: corresponding multiple of MBC with at least 70% inhibition of respiratory activity [7]: 2× MIC (2× MBC); Conc.: lowest multiple of MIC with at least 70% inhibition of respiratory activity [7]: 2× MIC (2× MBC); Decrease in viability < 70% at MIC value (MTT) [7]: did not show a decrease in viability < 70%; MIC [21]: 90.1 µM; MIC [22]: 45.1 µM
C[n+]1cc2c(c3ccccc31)Nc1ccc(OCc3ccccc3)cc1S2 [Compound 6j, 9-benzyloxy-5-methyl-12H-quino[3,4-b][1,4]benzothiazinium chloride]	19.7	3.41	2.46	2.46	19.7	did not affect plasma membrane permeability	91.3	9.83	9.83	39.3	39.3	9.83	9.83	2.5	4.91	19.7	78.6	37.7	78.6	9.83	MIC [21]: 39.3 µM; MIC [22]: 9.83 µM
C[n+]1cc2c(c3ccccc31)Nc1cc(OCc3ccccc3)ccc1S2 [Compound 6k, 10-benzyloxy-5-methyl-12H-quino[3,4-b][1,4]benzothiazinium chloride]	78.6	3.48	9.83	9.83	78.6	did not affect plasma membrane permeability	97.6	9.83	19.7	157	78.6	19.7	19.7	19.7	19.7	78.6	157	> 100	157	19.7	Conc.: corresponding multiple of MBC with at least 70% inhibition of respiratory activity [7]: 2× MIC (2× MBC); Conc.: lowest multiple of MIC with at least 70% inhibition of respiratory activity [7]: 2× MIC (2× MBC); Decrease in viability < 70% at MIC value (MTT) [7]: did not show a decrease in viability < 70%; MIC [21]: 157 µM; MIC [22]: 19.7 µM
